Measurements as given in PubChem BioAssay (NCI).
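Exposure lasted 48 hours, with cells grown in 96-well plates and compounds tested at five concentrations. TGI: concentration producing complete growth inhibition.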

How the values were obtained:
Experiment in all cases: growth of human tumour cells (NCI), 48 h
786-0 renal = test system: 786-0 renal
A498 renal = test system: A498 renal
A549 NSCLC = test system: A549 NSCLC
ACHN renal = test system: ACHN renal
CAKI-1 renal = test system: CAKI-1 renal
COLO 205 colon = test system: COLO 205 colon
DLD-1 colon = test system: DLD-1 colon
EKVX NSCLC = test system: EKVX NSCLC
HCT-116 colon = test system: HCT-116 colon
HOP-18 NSCLC = test system: HOP-18 NSCLC
HOP-62 NSCLC = test system: HOP-62 NSCLC
HOP-92 NSCLC = test system: HOP-92 NSCLC
HT29 colon = test system: HT29 colon
IGROV1 ovarian = test system: IGROV1 ovarian
KM12 colon = test system: KM12 colon
LOX IMVI melanoma = test system: LOX IMVI melanoma
M19-MEL melanoma = test system: M19-MEL melanoma
MALME-3M melanoma = test system: MALME-3M melanoma
NCI-H226 lung = test system: NCI-H226 lung
NCI-H23 lung = test system: NCI-H23 lung
NCI-H460 lung = test system: NCI-H460 lung
OVCAR-3 ovarian = test system: OVCAR-3 ovarian
OVCAR-4 ovarian = test system: OVCAR-4 ovarian
OVCAR-5 ovarian = test system: OVCAR-5 ovarian
OVCAR-8 ovarian = test system: OVCAR-8 ovarian
RXF 393 renal = test system: RXF 393 renal
SF-268 CNS = test system: SF-268 CNS
SF-295 CNS = test system: SF-295 CNS
SF-539 CNS = test system: SF-539 CNS
SK-MEL-2 melanoma = test system: SK-MEL-2 melanoma
SK-MEL-28 melanoma = test system: SK-MEL-28 melanoma
SK-MEL-5 melanoma = test system: SK-MEL-5 melanoma
SN12C renal = test system: SN12C renal
SNB-19 CNS = test system: SNB-19 CNS
SNB-75 CNS = test system: SNB-75 CNS
SNB-78 CNS = test system: SNB-78 CNS
SW-620 colon = test system: SW-620 colon
TK-10 renal = test system: TK-10 renal
U251 CNS = test system: U251 CNS
UACC-257 melanoma = test system: UACC-257 melanoma
UACC-62 melanoma = test system: UACC-62 melanoma
XF 498 CNS = test system: XF 498 CNS
BT-549 breast = test system: BT-549 breast
CCRF-CEM leukemia = test system: CCRF-CEM leukemia
DMS 114 small cell lung = test system: DMS 114 small cell lung
DU-145 prostate = test system: DU-145 prostate
HCC-2998 colon = test system: HCC-2998 colon
HCT-15 colon = test system: HCT-15 colon
HS 578T breast = test system: HS 578T breast
K-562 leukemia = test system: K-562 leukemia
LXFL 529 NSCLC = test system: LXFL 529 NSCLC
M14 melanoma = test system: M14 melanoma
MDA-MB-231 breast = test system: MDA-MB-231 breast
MDA-MB-435 = test system: MDA-MB-435
MDA-N = test system: MDA-N
NCI-H522 lung = test system: NCI-H522 lung
PC-3 prostate = test system: PC-3 prostate
RPMI-8226 leukemia = test system: RPMI-8226 leukemia
SK-OV-3 ovarian = test system: SK-OV-3 ovarian
SR leukemia = test system: SR leukemia
T-47D breast = test system: T-47D breast
UO-31 renal = test system: UO-31 renal

SMILES: CCCCCCCCCCCCCCC(C)CCC(=O)O (centres undefined)
- TGI (786-0 renal): > 100 µM
- TGI (A498 renal): > 100 µM
- TGI (A549 NSCLC): > 100 µM
- TGI (ACHN renal): > 100 µM
- TGI (CAKI-1 renal): > 100 µM
- TGI (COLO 205 colon): > 100 µM
- TGI (DLD-1 colon): > 100 µM
- TGI (EKVX NSCLC): > 100 µM
- TGI (HCT-116 colon): > 100 µM
- TGI (HOP-18 NSCLC): > 100 µM
- TGI (HOP-62 NSCLC): > 100 µM
- TGI (HOP-92 NSCLC): > 100 µM
- TGI (HT29 colon): > 100 µM
- TGI (IGROV1 ovarian): > 100 µM
- TGI (KM12 colon): > 100 µM
- TGI (LOX IMVI melanoma): > 100 µM
- TGI (M19-MEL melanoma): > 100 µM
- TGI (MALME-3M melanoma): > 100 µM
- TGI (NCI-H226 lung): > 100 µM
- TGI (NCI-H23 lung): > 100 µM
- TGI (NCI-H460 lung): > 100 µM
- TGI (OVCAR-3 ovarian): > 100 µM
- TGI (OVCAR-4 ovarian): > 100 µM
- TGI (OVCAR-5 ovarian): > 100 µM
- TGI (OVCAR-8 ovarian): > 100 µM
- TGI (RXF 393 renal): > 100 µM
- TGI (SF-268 CNS): > 100 µM
- TGI (SF-295 CNS): > 100 µM
- TGI (SF-539 CNS): > 100 µM
- TGI (SK-MEL-2 melanoma): > 100 µM
- TGI (SK-MEL-28 melanoma): > 100 µM
- TGI (SK-MEL-5 melanoma): > 100 µM
- TGI (SN12C renal): > 100 µM
- TGI (SNB-19 CNS): > 100 µM
- TGI (SNB-75 CNS): > 100 µM
- TGI (SNB-78 CNS): > 100 µM
- TGI (SW-620 colon): > 100 µM
- TGI (TK-10 renal): > 100 µM
- TGI (U251 CNS): > 100 µM
- TGI (UACC-257 melanoma): > 100 µM
- TGI (UACC-62 melanoma): > 100 µM
- TGI (XF 498 CNS): > 100 µM

SMILES: CC(=O)[C@]1(O)Cc2c(O)c3c(c(O)c2[C@@H](OC2CC(N)C(O)C(C)O2)C1)C(=O)c1c(OCc2ccccc2)cccc1C3=O (some centres undefined)
- TGI (786-0 renal): 2.16 µM
- TGI (A498 renal): 21.8 µM
- TGI (A549 NSCLC): 6.93 µM
- TGI (ACHN renal): 4.91 µM
- TGI (BT-549 breast): 21.2 µM
- TGI (CAKI-1 renal): 12 µM
- TGI (CCRF-CEM leukemia): 1.45 µM
- TGI (DMS 114 small cell lung): 2.55 µM
- TGI (DU-145 prostate): 3.4 µM
- TGI (EKVX NSCLC): 11.1 µM
- TGI (HCC-2998 colon): 2.63 µM
- TGI (HCT-116 colon): 1.79 µM
- TGI (HCT-15 colon): 2.75 µM
- TGI (HOP-18 NSCLC): 3.33 µM
- TGI (HOP-62 NSCLC): 16 µM
- TGI (HOP-92 NSCLC): 22.6 µM
- TGI (HS 578T breast): 2.29 µM
- TGI (HT29 colon): 14.7 µM
- TGI (IGROV1 ovarian): 33.8 µM
- TGI (K-562 leukemia): 2.68 µM
- TGI (LXFL 529 NSCLC): 2.38 µM
- TGI (M14 melanoma): 2.89 µM
- TGI (MALME-3M melanoma): 20.1 µM
- TGI (MDA-MB-231 breast): 3.45 µM
- TGI (MDA-MB-435): 2.95 µM
- TGI (MDA-N): 2.98 µM
- TGI (NCI-H226 lung): 5.74 µM
- TGI (NCI-H23 lung): 6.9 µM
- TGI (NCI-H460 lung): 6.31 µM
- TGI (NCI-H522 lung): 5.19 µM
- TGI (OVCAR-3 ovarian): 6.87 µM
- TGI (OVCAR-4 ovarian): 9.36 µM
- TGI (OVCAR-5 ovarian): 5.12 µM
- TGI (OVCAR-8 ovarian): 7.8 µM
- TGI (PC-3 prostate): 2.64 µM
- TGI (RPMI-8226 leukemia): > 100 µM
- TGI (RXF 393 renal): 15.1 µM
- TGI (SF-268 CNS): 11.7 µM
- TGI (SF-295 CNS): 4.05 µM
- TGI (SF-539 CNS): 7.45 µM
- TGI (SK-MEL-2 melanoma): 58.4 µM
- TGI (SK-MEL-28 melanoma): 2.91 µM
- TGI (SK-MEL-5 melanoma): 5.84 µM
- TGI (SK-OV-3 ovarian): 21.2 µM
- TGI (SN12C renal): 4.65 µM
- TGI (SNB-19 CNS): 9.04 µM
- TGI (SNB-75 CNS): 13.8 µM
- TGI (SNB-78 CNS): 36.1 µM
- TGI (SR leukemia): 0.468 µM
- TGI (SW-620 colon): 2 µM
- TGI (T-47D breast): 8.11 µM
- TGI (TK-10 renal): 25 µM
- TGI (U251 CNS): 3.97 µM
- TGI (UACC-257 melanoma): 11.1 µM
- TGI (UACC-62 melanoma): 5.63 µM
- TGI (UO-31 renal): 8.79 µM
- TGI (XF 498 CNS): 14.5 µM
